Assay results from PubChem BioAssay AID1963833 (Molecular Pharmacology Branch, DTP, NCI, 2024).

System: 883617-216-R-J1-PDC complex spheroid viability
Experiment: Anticancer human tumor 883617-216-R-J1-PDC patient-derived bladder carcinoma cell line growth inhibition [POLQ]
Conditions: for IC50: curve of first compound; for viability, T/C: stronger effect = lower value
Protocol: Multicellular complex tumor spheroid response to Polymerase (POL) inhibitors (novobiocin, ART-558, RP6685) in combination with a variety of drugs and investigational agents in selected tumor cell lines
The POL inhibitors (novobiocin, ART-558, and RP6685) were evaluated both individually and in combination with standard of care and investigational anticancer small molecules within a complex spheroid model of solid tumors. . Complex spheroids include a stromal component modeled by human endothelial cells (HUVEC) and fibroblasts modeled by human mesenchymal stem cells (MSCs). The concentration ranges selected for each drug and investigational agent were based upon clinically achievable concentrations if the clinical Cmax of the agent was known.
Compounds. The drugs and investigational agents: novobiocin (NSC847541), ART-558 (NSC835418), RP-6685 (NSC848927), peposertib (NSC802822), ceralasertib (NSC780249), elimusertib (NSC800525), camonsertib (NSC841442), AZD-1390 (NSC803789), olaparib (NSC753686), talazoparib (NSC767125), rucaparib (NSC756644), sotorasib (NSC818433), MRTX-1133 (NSC836407), SN-38 (NSC673596), topotecan (NSC609699), epotoside (NSC141540), doxorubicin (NSC123127), gemcitabine (NSC613327), 5-fluorouracil (NSC19893), paclitaxel (NSC125973), vemurafenib (NSC761431), MSA-2 (NSC828583), SN-011 (NSC837082), adavosertib (NSC754352), prexasertib (NSC758257), carboplatin (NSC241240) and oxaliplatin (NSC266046), were obtained from the National Cancer Institute (NCI) Developmental Therapeutics Program Chemical Repository (21). The FDA-approved anticancer drug set is available from the Developmental Therapeutics Program at https://dtp.cancer.gov/organization/dscb/obtaining/. […] The stock solutions were prepared in dimethyl sulfoxide (DMSO, Sigma-Aldrich, St. Louis, MO, cat. D2650), except for the platinum compounds which were prepared in saline (Quality Biological, Gaithersburg, MD, cat. 114-055-101), at 800-fold the tested concentration and stored at -70 degrees C prior to their use. All drugs and investigational agents were tested over a range starting from a high concentration at or near the clinical Cmax and decreasing in half-log increments. If the clinical Cmax for an agent had not been determined, the highest concentration tested was 10 microM, except for SN-38, which was tested at a high concentration of 1 microM.
Cell Culture. All cells were maintained in an incubator at 37 degrees C and 5% CO2 with 95% humidity. The PDC lines were cultured according to standard operating procedures established by the NCI PDMR (https://pdmr.cancer.gov). Table 3 of the manuscript, lists the cell lines along with the number of the three cell types plated to form the mct-spheroids and media for tumor cell growth. After thawing, all PDC lines, except 997537-175-T-J1-PDC and 415267-285-R-J2-PDC, were cultured in Matrigel-coated flasks prepared with a working solution of 1X Ham's F-12 nutrient mix, without supplementation (Thermo Fisher Scientific, cat. 11765054), 100 U/mL penicillin-streptomycin (Thermo Fisher Scientific, cat. 15140122), and 2.5% Matrigel (Corning Inc., Corning, NY, cat. 354248) for the first three passages. The two PDC lines 997537-175-T-J1-PDC and 415267-285-R-J2-PDC were cultured on uncoated flasks. The 857933-349-R-J2-PDC line was cultured in 6C/Colon 1B media containing advanced DMEM/F-12 (Thermo Fisher Scientific, cat. 12634028), 10 mM HEPES (Thermo Fisher Scientific, cat. 15630080), 1X GlutaMAX supplement (Thermo Fisher Scientific, cat. 35050061), 0.1 mg/mL primocin (InvivoGen, San Diego, CA, cat. ant-pm-2), 10% defined fetal bovine serum, heat inactivated (HyClone Laboratories Inc., Logan, UT, cat. SH30070.03HI), 50% L-WRN conditioned media (ATCC, cat. CRL-3276), 1.25 mM N-Acetyl-L-cysteine (Sigma-Aldrich, cat. A9165), 10 mM nicotinamide (Sigma-Aldrich, cat. N0636), 1X B-27 supplement (Thermo Fisher Scientific, cat. 17504044), 1X N-2 supplement (Thermo Fisher Scientific, cat. […]

[1] = second compound 0.0316 µM, first compound 0.0316 µM
[2] = second compound 0.0316 µM, first compound 0.1 µM
[3] = second compound 0.0316 µM, first compound 0.316 µM
[4] = second compound 0.0316 µM, first compound 1 µM
[5] = second compound 0.0316 µM, first compound 3.16 µM
[6] = second compound 0.0316 µM, first compound 10 µM
[7] = second compound 0.1 µM, first compound 0.0316 µM
[8] = second compound 0.1 µM, first compound 0.1 µM
[9] = second compound 0.1 µM, first compound 0.316 µM
[10] = second compound 0.1 µM, first compound 1 µM
[11] = second compound 0.1 µM, first compound 3.16 µM
[12] = second compound 0.1 µM, first compound 10 µM
[13] = second compound 0.316 µM, first compound 0.0316 µM
[14] = second compound 0.316 µM, first compound 0.1 µM
[15] = second compound 0.316 µM, first compound 0.316 µM
[16] = second compound 0.316 µM, first compound 1 µM
[17] = second compound 0.316 µM, first compound 3.16 µM
[18] = second compound 0.316 µM, first compound 10 µM
[19] = second compound 1 µM, first compound 0.0316 µM
[20] = second compound 1 µM, first compound 0.1 µM
[21] = second compound 1 µM, first compound 0.316 µM
[22] = second compound 1 µM, first compound 1 µM
[23] = second compound 1 µM, first compound 3.16 µM
[24] = second compound 1 µM, first compound 10 µM
[25] = second compound 3.16 µM, first compound 0.0316 µM
[26] = second compound 3.16 µM, first compound 0.1 µM
[27] = second compound 3.16 µM, first compound 0.316 µM
[28] = second compound 3.16 µM, first compound 1 µM
[29] = second compound 3.16 µM, first compound 3.16 µM
[30] = second compound 3.16 µM, first compound 10 µM
[31] = second compound 10 µM, first compound 0.0316 µM
[32] = second compound 10 µM, first compound 0.1 µM
[33] = second compound 10 µM, first compound 0.316 µM
[34] = second compound 10 µM, first compound 1 µM
[35] = second compound 10 µM, first compound 3.16 µM
[36] = second compound 10 µM, first compound 10 µM
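Note: spheroids exposed to compounds for seven days before readout.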
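Throughout, for viability, T/C: 100% = DMSO vehicle control viability.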

## CCc1cc2c(N3CCc4c(cc(Cn5ccnc5)cc4-c4cn(C)nc4C(F)(F)F)C3=O)cc(C)nc2c(OC)n1 + Cc1cccc(N(C)C(=O)C2C(O)CCN2c2nc(C)cc(C(F)(F)F)c2C#N)c1
Second compound 0.0316 µM
  IC50: 7.4 µM
Second compound 0.1 µM
  IC50: 8.3 µM
Second compound 0.316 µM
  IC50: > 10 µM
Second compound 1 µM
  IC50: 7.69 µM
Second compound 3.16 µM
  IC50: > 10 µM
Second compound 10 µM
  IC50: 8.25 µM
[1]
  viability, T/C: 87.4%
[2]
  viability, T/C: 95.6%
[3]
  viability, T/C: 91.7%
[4]
  viability, T/C: 91.7%
[5]
  viability, T/C: 72.8%
[6]
  viability, T/C: 41.8%
[7]
  viability, T/C: 86.1%
[8]
  viability, T/C: 102%
[9]
  viability, T/C: 94.5%
[10]
  viability, T/C: 97.6%
[11]
  viability, T/C: 72.8%
[12]
  viability, T/C: 45.6%
[13]
  viability, T/C: 81.3%
[14]
  viability, T/C: 89.2%
[15]
  viability, T/C: 98.8%
[16]
  viability, T/C: 83.8%
[17]
  viability, T/C: 69.9%
[18]
  viability, T/C: 53%
[19]
  viability, T/C: 89.1%
[20]
  viability, T/C: 88.3%
[21]
  viability, T/C: 106%
[22]
  viability, T/C: 92.5%
[23]
  viability, T/C: 71.1%
[24]
  viability, T/C: 43.8%
[25]
  viability, T/C: 99.8%
[26]
  viability, T/C: 94.4%
[27]
  viability, T/C: 102%
[28]
  viability, T/C: 84.8%
[29]
  viability, T/C: 74.6%
[30]
  viability, T/C: 58.3%
[31]
  viability, T/C: 107%
[32]
  viability, T/C: 110%
[33]
  viability, T/C: 93%
[34]
  viability, T/C: 95.3%
[35]
  viability, T/C: 69.9%
[36]
  viability, T/C: 45.9%

## CCc1cc2c(N3CCc4c(cc(Cn5ccnc5)cc4-c4cn(C)nc4C(F)(F)F)C3=O)ccnc2c(OC)n1 + Cc1cccc(N(C)C(=O)C2C(O)CCN2c2nc(C)cc(C(F)(F)F)c2C#N)c1
Second compound 0.0316 µM
  IC50: > 10 µM
Second compound 0.1 µM
  IC50: > 10 µM
Second compound 0.316 µM
  IC50: 8.04 µM
Second compound 1 µM
  IC50: > 10 µM
Second compound 3.16 µM
  IC50: 8.36 µM
Second compound 10 µM
  IC50: 8.04 µM
[1]
  viability, T/C: 91.7%
[2]
  viability, T/C: 103%
[3]
  viability, T/C: 82.1%
[4]
  viability, T/C: 82%
[5]
  viability, T/C: 70%
[6]
  viability, T/C: 53.5%
[7]
  viability, T/C: 93%
[8]
  viability, T/C: 107%
[9]
  viability, T/C: 84.2%
[10]
  viability, T/C: 96.6%
[11]
  viability, T/C: 73.4%
[12]
  viability, T/C: 50.7%
[13]
  viability, T/C: 102%
[14]
  viability, T/C: 104%
[15]
  viability, T/C: 101%
[16]
  viability, T/C: 98%
[17]
  viability, T/C: 76.6%
[18]
  viability, T/C: 43.7%
[19]
  viability, T/C: 98.4%
[20]
  viability, T/C: 101%
[21]
  viability, T/C: 87.8%
[22]
  viability, T/C: 94.4%
[23]
  viability, T/C: 68.2%
[24]
  viability, T/C: 61.1%
[25]
  viability, T/C: 99.6%
[26]
  viability, T/C: 103%
[27]
  viability, T/C: 87.7%
[28]
  viability, T/C: 86.9%
[29]
  viability, T/C: 66.1%
[30]
  viability, T/C: 47%
[31]
  viability, T/C: 115%
[32]
  viability, T/C: 104%
[33]
  viability, T/C: 88.3%
[34]
  viability, T/C: 92.9%
[35]
  viability, T/C: 76.6%
[36]
  viability, T/C: 42.6%

## Nc1ccn(C2OC(CO)C(O)C2(F)F)c(=O)n1 (stereo unspecified) + Nc1ccc(C#CCN(C(=O)Cc2ncc(C(F)(F)F)cc2C(F)(F)F)c2ccc(F)cc2)nn1
Second compound 0.0316 µM
  IC50: < 0.0316 µM
Second compound 0.1 µM
  IC50: < 0.0316 µM
Second compound 0.316 µM
  IC50: < 0.0316 µM
Second compound 1 µM
  IC50: < 0.0316 µM
Second compound 3.16 µM
  IC50: < 0.0316 µM
Second compound 10 µM
  IC50: < 0.0316 µM
[1]
  viability, T/C: 33.7%
[2]
  viability, T/C: 33.4%
[3]
  viability, T/C: 39.8%
[4]
  viability, T/C: 33.9%
[5]
  viability, T/C: 56%
[6]
  viability, T/C: 37.3%
[7]
  viability, T/C: 34.5%
[8]
  viability, T/C: 35.1%
[9]
  viability, T/C: 38.2%
[10]
  viability, T/C: 32.4%
[11]
  viability, T/C: 37.5%
[12]
  viability, T/C: 47.1%
[13]
  viability, T/C: 32.5%
[14]
  viability, T/C: 38.7%
[15]
  viability, T/C: 39.3%
[16]
  viability, T/C: 35.9%
[17]
  viability, T/C: 35.1%
[18]
  viability, T/C: 34.3%
[19]
  viability, T/C: 43.1%
[20]
  viability, T/C: 39.9%
[21]
  viability, T/C: 45.2%
[22]
  viability, T/C: 39.8%
[23]
  viability, T/C: 43.3%
[24]
  viability, T/C: 37.6%
[25]
  viability, T/C: 44.7%
[26]
  viability, T/C: 34.4%
[27]
  viability, T/C: 35.4%
[28]
  viability, T/C: 60.7%
[29]
  viability, T/C: 46.2%
[30]
  viability, T/C: 35.6%
[31]
  viability, T/C: 62.4%
[32]
  viability, T/C: 28.1%
[33]
  viability, T/C: 34.5%
[34]
  viability, T/C: 47.7%
[35]
  viability, T/C: 50.4%
[36]
  viability, T/C: 37.6%
